Laboratory results published in US20100311714A1, “1H-IMIDAZO[4,5-c]QUINOLINONE COMPOUNDS” (priority 2009, published 2010).
Like-named read-outs stand apart in the source and are kept apart here.

How the values were obtained:
[1] = tested on: PKB Ser473 phosphorylation in Rat1-myr-HA-p110 beta cells; assay: Reverse protein array, PKB Ser473 phosphorylation in Rat1-myr-HA-p110 beta cells; type: cell-based; details: Rattus norvegicus, 0.5 h, 30 minutes compound incubation, read-out: p-PKB/IC50_beta
[2] = tested on: S6 Ribosomal Protein phosphorylation Ser235/236 in TSC1 null mouse embryo fibroblast (MEF) cells; assay: Reverse protein array, S6 Ribosomal Protein phosphorylation in TSC1 null MEF cells; type: cell-based; details: 1 h, TSC1-/- MEFs, 60 minutes
Procedure: TSC1−/− MEFs cells (provided by D. Kwiatkowski), were cultivated in Dulbecco's modified Eagle's medium (DMEM high Glucose, GIBCO, cat. No. 41956-039) supplemented with 10% heat inactivated fetal bovine calf serum (Amimed, cat. No. 2-01F16-I), 1% L-Glutamine (Invitrogen, cat. No. 25030-02), 1% penicillin-streptomycin (GIBCO, cat. No. 15140-114) at 37° C. in a 5% CO2 and 95% relative humidity atmosphere incubator.
The TSC1−/− cells were trypsinized and counted with a CASY TT cell counter (Schärfe System GmbH, Reutlingen Germany). The cells were diluted in fresh DMEM complete medium and 0.75×10^4 cells/150 μl/well seeded in 96-well TPP-tissue culture plates (TPP, cat. No. 92096). The plates were incubated at 37° C. and 5% CO2 under humidified condition for at least 20 h. Working solutions were prepared freshly as serial 8 step dilutions (vol/vol) in DMSO on the day of the experiment. The working solutions were further diluted 1/5000 in cell culture medium to get final compound concentrations of […]. The final DMSO concentration was kept constant at 0.02%. cell culture medium containing 0.02% DMSO was used as vehicle treatment control. Post incubation, the cells were treated with the serial compound dilution. 50 μl of the compound medium mixture was added to the wells containing cells and 150 μl DMEM medium and incubated for 60 minutes (37° C., 5% CO2). After 60 minutes of incubation, the medium mixture was quickly removed by aspiration. For cell lysis, a mixture of 10% CLB1 CeLyA lysis buffer (Zeptosens, cat. No. 9000), 90% CSBL1 CeLyA spotting buffer (Zeptosens, cat. No. 9020) was freshly prepared and supplemented with 1% Octyl β-D-glucopyranoside (SIGMA, cat. No. 08001-5G) and 1 mM Na-Orthovanadate (Sigma, cat No. S-6508). 50 μl of the described lysis buffer mix was added to each well, followed by 10 minutes of incubation on ice. After an additional freeze-thaw cycle, another 50 μl of the lysis buffer mix without Octyl β-D-glucopyranoside was added to the wells, and 90 μl of the cell lysate was transferred to a 96-well V-bottom plate (Fisher Scientific, cat. No. 6067Y), followed by a centrifugation step (5 min, 1500 rpm at 19° C. in an Eppendorf 5810R centrifuge) to remove the unlysed cell debris.
The spotting of the chips follows the previous described method.
The signal detection and the data analysis follows the previous described method using the pS6 ribosomal protein Ser235/236 (CST, cat. No. #2211) as a primary antibody.

Row | SMILES | IC50 [1] [µM] | IC50 ([2]; read-out: p-S6 IC50) [µM] | IC50 ([2]; read-out: p-S6) [µM]
1 | COc1ncc(-c2ccc3ncc4c(c3c2)n(-c2ccc(N3CC(O)C3)nc2C)c(=O)n4C)c(OC)n1 [Example 29.6, 8-(2,4-Dimethoxy-pyrimidin-5-yl)-1-[6-(3-hydroxy-azetidin-1-yl)-2-methyl-pyridin-3-yl]-3-methyl-1,3-dihydro-imidazo[4,5-c]quinolin-2-one] | 0.208 | 0.005 | 
2 | Cc1ncccc1-n1c(=O)n(C)c2cnc3ccc(-c4cncc(NC(C)C)c4)cc3c21 [Example 2.24, 8-(5-Isopropylamino-pyridin-3-yl)-3-methyl-1-(2-methyl-pyridin-3-yl)-1,3-dihydro-imidazo[4,5-c]quinolin-2-one] | 0.0164 | 0.004 | 
3 | COc1ncc(-c2ccc3ncc4c(c3c2)n(-c2ccc(N3CC[C@H](O)C3)nc2C)c(=O)n4C)c(OC)n1 [Example 32.3, 8-(2,4-Dimethoxy-pyrimidin-5-yl)-1-[6-((S)-3-hydroxy-pyrrolidin-1-yl)-2-methyl-pyridin-3-yl]-3-methyl-1,3-dihydro-imidazo[4,5-c]quinolin-2-one] | 0.08 | 0.004 | 
4 | CCOc1ccc(-c2ccc3ncc4c(c3c2)n(-c2ccc(F)nc2C)c(=O)n4C)cn1 [Example 7.3, 8-(6-Ethoxy-pyridin-3-yl)-1-(6-fluoro-2-methyl-pyridin-3-yl)-3-methyl-1,3-dihydro-imidazo[4,5-c]quinolin-2-one] | 0.0438 |  | 0.0843
5 | CCOc1cc(-c2ccc3ncc4c(c3c2)n(-c2cccnc2C)c(=O)n4C)cnc1COC [Example 2.28, 8-(5-Ethoxy-6-methoxymethyl-pyridin-3-yl)-3-methyl-1-(2-methyl-pyridin-3-yl)-1,3-dihydro-imidazo[4,5-c]quinolin-2-one] | 0.061 | 0.014 | 
6 | Cc1ncccc1-n1c(=O)n(C)c2cnc3ccc(-c4ccc(OCCCN(C)C)nc4)cc3c21 [Example 2.10, 8-[6-(3-Dimethylamino-propoxy)-pyridin-3-yl]-3-methyl-1-(2-methyl-pyridin-3-yl)-1,3-dihydro-imidazo[4,5-c]quinolin-2-one] | 0.0842 |  | 0.159
7 | COc1cc(-c2ccc3ncc4c(c3c2)n(-c2cccnc2C)c(=O)n4C)cnc1C(OC)OC [Example 2.27, 8-(6-Dimethoxymethyl-5-methoxy-pyridin-3-yl)-3-methyl-1-(2-methyl-pyridin-3-yl)-1,3-dihydro-imidazo[4,5-c]quinolin-2-one] | 0.247 | 0.054 | 
8 | CCOc1cc(-c2ccc3ncc4c(c3c2)n(-c2ccc(N3CCC3)nc2C)c(=O)n4C)cnc1COC [Example 23.5, 1-(6-Azetidin-1-yl-2-methyl-pyridin-3-yl)-8-(5-ethoxy-6-methoxymethyl-pyridin-3-yl)-3-methyl-1,3-dihydro-imidazo[4,5-c]quinolin-2-one] | 0.0986 |  | 
9 | Cc1ncccc1-n1c(=O)n(C)c2cnc3ccc(-c4cncc(N)c4)cc3c21 [Example 2.25, 8-(5-Amino-pyridin-3-yl)-3-methyl-1-(2-methyl-pyridin-3-yl)-1,3-dihydro-imidazo[4,5-c]quinolin-2-one] | 0.0587 |  | 
10 | Cn1c(=O)n(-c2cccnc2)c2c3cc(-c4ccc(CO)nc4)ccc3ncc21 [Example 5.1, 8-(6-Hydroxymethyl-pyridin-3-yl)-3-methyl-1-pyridin-3-yl-1,3-dihydro-imidazo[4,5-c]quinolin-2-one] | 0.166 |  | 
11 | COc1ccc(-c2ccc3ncc4c(c3c2)n(-c2ncccc2C)c(=O)n4C)cc1OC [Example 3.10, 8-(3,4-Dimethoxy-phenyl)-3-methyl-1-(3-methyl-pyridin-2-yl)-1,3-dihydro-imidazo[4,5-c]quinolin-2-one] | 0.516 |  | 

Second part, led by results:

Row | IC50 [1] [µM] | SMILES | IC50 ([2]; read-out: p-S6 IC50) [µM] | IC50 ([2]; read-out: p-S6) [µM]
12 | 0.006 | CNc1cc(-c2ccc3ncc4c(c3c2)n(-c2cccnc2C)c(=O)n4C)cnc1C [Example 2.32, 3-Methyl-8-(6-methyl-5-methylamino-pyridin-3-yl)-1-(2-methyl-pyridin-3-yl)-1,3-dihydro-imidazo[4,5-c]quinolin-2-one] | 0.002 | 
13 | 0.0086 | CNc1ccc(-c2ccc3ncc4c(c3c2)n(-c2ccc(F)nc2C)c(=O)n4C)cn1 [Example 7.4, 1-(6-Fluoro-2-methyl-pyridin-3-yl)-3-methyl-8-(6-methylamino-pyridin-3-yl)-1,3-dihydro-imidazo[4,5-c]quinolin-2-one] |  | 0.00852
14 | 0.0102 | Cn1c(=O)n(-c2cccnc2F)c2c3cc(-c4cnc(N)c(C(F)(F)F)c4)ccc3ncc21 [Example 6.2, 8-(6-Amino-5-trifluoromethyl-pyridin-3-yl)-1-(2-fluoro-pyridin-3-yl)-3-methyl-1,3-dihydro-imidazo[4,5-c]quinolin-2-one] |  | 0.00147
15 | 0.0134 | Cc1nc(F)ccc1-n1c(=O)n(C)c2cnc3ccc(-c4cnc(N)c(C(F)(F)F)c4)cc3c21 [Example 7.1, 8-(6-Amino-5-trifluoromethyl-pyridin-3-yl)-1-(6-fluoro-2-methyl-pyridin-3-yl)-3-methyl-1,3-dihydro-imidazo[4,5-c]quinolin-2-one] |  | 0.00223
16 | 0.0074 | CNc1cncc(-c2ccc3ncc4c(c3c2)n(-c2cccnc2C)c(=O)n4C)c1 [Example 2.26, 3-Methyl-8-(5-methylamino-pyridin-3-yl)-1-(2-methyl-pyridin-3-yl)-1,3-dihydro-imidazo[4,5-c]quinolin-2-one] | 0.006 | 
17 | 0.0151 | Cc1nc(N2CCC2)ccc1-n1c(=O)n(C)c2cnc3ccc(-c4cncc(N5CCC5)c4)cc3c21 [Example 23.1, 1-(6-Azetidin-1-yl-2-methyl-pyridin-3-yl)-8-(5-azetidin-1-yl-pyridin-3-yl)-3-methyl-1,3-dihydro-imidazo[4,5-c]quinolin-2-one] | 0.002 | 
18 | 0.0159 | Cc1ncccc1-n1c(=O)n(C)c2cnc3ccc(-c4ccc(C(N)=O)cc4)cc3c21 [Example 2.3, 4-[3-Methyl-1-(2-methyl-pyridin-3-yl)-2-oxo-2,3-dihydro-1H-imidazo[4,5-c]quinolin-8-yl]-benzamide] |  | 0.0564
19 | < 0.00457 | CNc1ncc(-c2ccc3ncc4c(c3c2)n(-c2ccc(N(C)CCO)nc2C)c(=O)n4C)cn1 [Example 26.2, 1-{6-[(2-Hydroxy-ethyl)-methyl-amino]-2-methyl-pyridin-3-yl}-3-methyl-8-(2-methylamino-pyrimidin-5-yl)-1,3-dihydro-imidazo[4,5-c]quinolin-2-one] | < 0.000457 | 
20 | 0.0113 | CNc1ncc(-c2ccc3ncc4c(c3c2)n(-c2ccc(N3CCC(O)C3)nc2C)c(=O)n4C)cn1 (stereo not shown) [Example 27.2, 1-[6-(3-Hydroxy-pyrrolidin-1-yl)-2-methyl-pyridin-3-yl]-3-methyl-8-(2-methylamino-pyrimidin-5-yl)-1,3-dihydro-imidazo[4,5-c]quinolin-2-one] | 0.002 | 
21 | 0.0157 | COc1ccc(-c2ccc3ncc4c(c3c2)n(-c2cccnc2C)c(=O)n4C)cc1OC [Example 2.9, 8-(3,4-Dimethoxy-phenyl)-3-methyl-1-(2-methyl-pyridin-3-yl)-1,3-dihydro-imidazo[4,5-c]quinolin-2-one] |  | 
22 | < 0.00457 | CNc1ncc(-c2ccc3ncc4c(c3c2)n(-c2ccc(N3CC[C@H](O)C3)nc2C)c(=O)n4C)cn1 [Example 32.1, 1-[6-((S)-3-Hydroxy-pyrrolidin-1-yl)-2-methyl-pyridin-3-yl]-3-methyl-8-(2-methylamino-pyrimidin-5-yl)-1,3-dihydro-imidazo[4,5-c]quinolin-2-one] |  | 
23 | 0.0053 | Cc1nc(N2CCN(C)C(=O)C2)ccc1-n1c(=O)n(C)c2cnc3ccc(-c4cnc(N)c(C(F)(F)F)c4)cc3c21 [Example 21.1, 8-(6-Amino-5-trifluoromethyl-pyridin-3-yl)-3-methyl-1-[2-methyl-6-(4-methyl-3-oxo-piperazin-1-yl)-pyridin-3-yl]-1,3-dihydro-imidazo[4,5-c]quinolin-2-one] |  | 
24 | 0.0068 | CNc1ccc(-c2ccc3ncc4c(c3c2)n(-c2ccc(N3CCC3)nc2C)c(=O)n4C)cn1 [Example 23.4, 1-(6-Azetidin-1-yl-2-methyl-pyridin-3-yl)-3-methyl-8-(6-methylamino-pyridin-3-yl)-1,3-dihydro-imidazo[4,5-c]quinolin-2-one] |  | 
